Experimental data: US20220402862A1 (Intellia Therapeutics, Inc., priority 2019, published 2022)
Values joined by “and” are separate entries in the source; they are usually repeats but may differ in a detail not shown here. Equal values may be shown once.

How the values were obtained:
[1] = Dynamic light scattering of LNPs: Z-average diameter, number average diameter, PDI; assay type: physicochemical; settings: LNP, sg:mRNA 1:1, N/P about 6, 50/9/38/3; Table 2, Experiments 2-20
In short: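 LNP samples were diluted in PBS and measured by DLS to give intensity-based Z-average diameter, number average diameter and polydispersity index. PDI describes size spread around the mean, with zero meaning a uniform population.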

[2] = RNA encapsulation efficiency of LNPs (Ribogreen fluorescence assay); assay type: physicochemical; settings: LNP, sg:mRNA 1:1, N/P about 6, amine lipid/DSPC/cholesterol/PEG-2k-DMG 50/9/38/3; Table 2, Experiments 2-20
In short: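 LNPs were diluted in 1× TE with 0.2% Triton X-100 (total RNA) or without it (free RNA), stained with RiboGreen for ~10 min at room temperature in the dark, and read at Ex 488/Em 525 nm against standard curves of the starting RNA. Encapsulation efficiency = (Total − Free)/Total.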

[3] = pKa measurement of unformulated amine lipid (fluorescence, method of Jayaraman et al.); assay type: physicochemical; settings: 100 μM in 0.1 M phosphate buffer, pH 2.0-12.0
Method: The pKa of each amine lipid was determined according to the method in Jayaraman, et al. (Angewandte Chemie, 2012) with the following adaptations. […] Lipid was diluted to 100 μM in 0.1 M phosphate buffer (Boston Bioproducts) where the pH ranged from 2.0-12.0. Fluorescence intensity was measured using excitation and emission wavelengths of 321 nm and 448 nm.

Transthyretin (TTR) = test: Serum TTR ELISA in mice after LNP dosing; assay type: in vivo, CD-1 female mice; settings: guide G282 experiments; for Serum TTR % TSS: mouse serum TTR relative to TSS control; for Serum TTR: mouse serum, ELISA
In short: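 Female CD-1 mice, 6–10 weeks, given LNPs by tail-vein injection (~10 mL/kg), 0.1 mg/kg unless noted; serum taken at day 6 or 7 by cardiac puncture. Total mouse TTR by ELISA on sera diluted 10,000-fold (0.1 mg/kg) or 10,000- and 2,500-fold (0.3 mg/kg).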

| SMILES | Number mean (nm) [1] | PDI [1] | Z-avg (nm) [1] | Encapsulation (%) [2] | pKa [3] | Serum TTR % TSS (Transthyretin (TTR)) | Serum TTR (Transthyretin (TTR)) |
| --- | --- | --- | --- | --- | --- | --- | --- |
| CCCCCCCCCCOC(=O)CCCCCCCC(=O)OCC(COC(=O)CCCCCC(=O)OC(CCCCCCCC)CCCCCCCC)COC(=O)CCCN(C)C (stereo not shown) [Compound 82, 1-decyl 9-(3-((4-(dimethylamino)butanoyl)oxy)-2-(((7-(heptadecan-9-yloxy)-7-oxoheptanoyl)oxy)methyl)propyl) nonanedioate] | 94.01 nm | 0.038 | 117.5 nm | 98% | 6.31 | 126% | 953 µg/mL |
| CCCCCCCCCCOC(=O)CCCCCCCC(=O)OCC(COC(=O)CCCC(=O)OC(CCCCCCCC)CCCCCCCC)COC(=O)OCCC1CCCN1C (stereo not shown) [Compound 87, 1-decyl 9-(3-((5-(heptadecan-9-yloxy)-5-oxopentanoyl)oxy)-2-((((2-(1-methylpyrrolidin-2-yl)ethoxy)carbonyl)oxy)methyl)propyl) nonanedioate] | 81.57 nm | 0.006 | 98.47 nm | 98% | 6.52 | 68% | 511 µg/mL |
| CCCCCC/C=C\COC(=O)CCCCCCCC(=O)OCC(COC(=O)CCC(OCCCCCCC)OCCCCCCC)COC(=O)OCCCN(CC)CC (stereo not shown) [Compound 84, (Z)-1-(3-((4,4-bis(heptyloxy)butanoyl)oxy)-2-((((3-(diethylamino)propoxy)carbonyl)oxy)methyl)propyl) 9-(non-2-en-1-yl) nonanedioate] | 86.08 nm | 0.086 | 114.2 nm | 95% | 6.16 | 71% | 648 µg/mL |
| CCCCC/C=C\C/C=C\CCCCCCCC(=O)OCC(COC(=O)CCC(OCCCCCCCC)OCCCCCCCC)COC(=O)NC(C)CN(CC)CC (stereo not shown) [Compound 44, 3-((4,4-bis(octyloxy)butanoyl)oxy)-2-((((1-(diethylamino)propan-2-yl)carbamoyl)oxy)methyl)propyl (9Z,12Z)-octadeca-9,12-dienoate] | 64.78 nm | 0.025 | 81.19 nm | 91% | 6.1 | 82% | 910 µg/mL |
| CCCCCC/C=C\COC(=O)CCCCCCCC(=O)OCC(COC(=O)CCCCCC(=O)OC(CCCCCCCC)CCCCCCCC)COC(=O)OCCCN(CC)CC (stereo not shown) [Compound 85, (Z)-1-(3-(((3-(diethylamino)propoxy)carbonyl)oxy)-2-(((7-(heptadecan-9-yloxy)-7-oxoheptanoyl)oxy)methyl)propyl) 9-(non-2-en-1-yl) nonanedioate] | 81.21 nm | 0.006 | 97.86 nm | 99% | 6.16 | 84% | 762 µg/mL |
| CCCCC/C=C\C/C=C\CCCCCCCC(=O)OCC(COC(=O)CCC(OCCCCCCCC)OCCCCCCCC)COC(=O)NCC1CCCN1C (stereo not shown) [Compound 39, 3-((4,4-bis(octyloxy)butanoyl)oxy)-2-(((((1-methylpyrrolidin-2-yl)methyl)carbamoyl)oxy)methyl)propyl (9Z,12Z)-octadeca-9,12-dienoate] | 64.79 nm | 0.024 | 79.81 nm | 97% | 7.34 | 82% | 656 µg/mL |
| CCCCCCCCCCOC(=O)CCCCCCCC(=O)OCC(COC(=O)CCC(OCCCCCCCC)OCCCCCCCC)COC(=O)NCCN(CC)CC (stereo not shown) [Compound 73, 1-(3-((4,4-bis(octyloxy)butanoyl)oxy)-2-((((2-(diethylamino)ethyl)carbamoyl)oxy)methyl)propyl) 9-decyl nonanedioate] | 94.5 nm | 0.008 | 110.6 nm | 97% | 6.64 | 60% | 550 µg/mL |
| CCCCCCCCCCOC(=O)CCCCCCCC(=O)OCC(COC(=O)CCCN(CC)CC)COC(=O)CCC(OCCCCCCCC)OCCCCCCCC (stereo not shown) [Compound 75, 1-(3-((4,4-bis(octyloxy)butanoyl)oxy)-2-(((4-(diethylamino)butanoyl)oxy)methyl)propyl) 9-decyl nonanedioate] | 92.74 nm | 0.020 | 110.9 nm | 98% | 6.45 | 68% | 623 µg/mL |
| CCCCCC/C=C\COC(=O)CCCCCC(=O)OCC(COC(=O)CCC(OCCCCCCCC)OCCCCCCCC)COC(=O)OCCCN(CC)CC (stereo not shown) [Compound 55, (Z)-1-(3-((4,4-bis(octyloxy)butanoyl)oxy)-2-((((3-(diethylamino)propoxy)carbonyl)oxy)methyl)propyl) 7-(non-2-en-1-yl) heptanedioate] | 79.46 nm and 90.16 nm | 0.048 and 0.039 | 101 nm and 113.2 nm | 96% and 92% | 6.84 | 51% | 442 µg/mL |
| CCCCC/C=C\C/C=C\CCCCCCCC(=O)OCC(COC(=O)CCCN(C)C)COC(=O)CCC(OCCCCCCCC)OCCCCCCCC (stereo not shown) [Compound 26, 3-((4,4-bis(octyloxy)butanoyl)oxy)-2-(((4-(dimethylamino)butanoyl)oxy)methyl)propyl (9Z,12Z)-octadeca-9,12-dienoate] | 73 nm | 0.000 | 88 nm | 98% | 7.39 | 112% | 1008 µg/mL |
| CCCCC/C=C\C/C=C\CCCCCCCC(=O)OCC(COC(=O)CCC(OCCCCCCCC)OCCCCCCCC)COC(=O)N1CCN(C)CC1 (stereo not shown) [Compound 47, 3-((4,4-bis(octyloxy)butanoyl)oxy)-2-((((9Z,12Z)-octadeca-9,12-dienoyl)oxy)methyl)propyl 4-methylpiperazine-1-carboxylate] | 40.95 nm | 0.086 | 58.93 nm | 97% | 5.9 | 96% | 1075 µg/mL |
| CCCCCCCCCCOC(=O)CCCCCCCC(=O)OCC(COC(=O)CCCC(=O)OC(CCCCCCCC)CCCCCCCC)COC(=O)CCCN(C)C (stereo not shown) [Compound 89, 1-decyl 9-(3-((4-(dimethylamino)butanoyl)oxy)-2-(((5-(heptadecan-9-yloxy)-5-oxopentanoyl)oxy)methyl)propyl) nonanedioate] | 89.4 nm | 0.008 | 107.3 nm | 95% | 6.79 | 102% | 774 µg/mL |
| CCCCCCCCCCOC(=O)CCCCCCCC(=O)OCC(COC(=O)CCC(OCCCCCCCC)OCCCCCCCC)COC(=O)OCC1CCCN(CC)C1 (stereo not shown) [Compound 72, 1-(3-((4,4-bis(octyloxy)butanoyl)oxy)-2-(((((1-ethylpiperidin-3-yl)methoxy)carbonyl)oxy)methyl)propyl) 9-decyl nonanedioate] | 75.22 nm | 0.002 | 91.65 nm | 99% | 6.07 | 52% | 479 µg/mL |
| CCCCCCCCCCOC(=O)CCCCCCCC(=O)OCC(COC(=O)CCC(OCCCCCCCC)OCCCCCCCC)COC(=O)OCCC1CCCN1C (stereo not shown) [Compound 74, 1-(3-((4,4-bis(octyloxy)butanoyl)oxy)-2-((((2-(1-methylpyrrolidin-2-yl)ethoxy)carbonyl)oxy)methyl)propyl) 9-decyl nonanedioate] | 87.14 nm | 0.021 | 105.7 nm | 99% | 6.39 | 44% | 406 µg/mL |
| CCCCC/C=C\C/C=C\CCCCCCCC(=O)OCC(COC(=O)CCC(OCCCCCCCC)OCCCCCCCC)COC(=O)NC1CCN(CC)CC1 (stereo not shown) [Compound 37, 3-((4,4-bis(octyloxy)butanoyl)oxy)-2-((((1-ethylpiperidin-4-yl)carbamoyl)oxy)methyl)propyl (9Z,12Z)-octadeca-9,12-dienoate] | 44.73 nm | 0.091 | 65.01 nm | 100% | 7.84 | 77% | 617 µg/mL |
| CCCCC/C=C\C/C=C\CCCCCCCC(=O)OCC(C)(COC(=O)CCC(OCCCCCCCC)OCCCCCCCC)COC(=O)OCCCN(CC)CC (stereo not shown) [Compound 96, 3-((4,4-bis(octyloxy)butanoyl)oxy)-2-((((3-(diethylamino)propoxy)carbonyl)oxy)methyl)-2-methylpropyl (9Z,12Z)-octadeca-9,12-dienoate] | 65.94 nm | 0.019 | 81.55 nm | 98% | 5.76 | 58% | 449 µg/mL |
